Measured values taken from patent US6472213B1, “Shuttle vectors for the introduction of DNA into mycobacteria and utilization of such bacteria as vaccines” (Institut National de la Sante et de la Recherche Medicale …, priority 1994, dated 2002).

Tests used:
[1] = test system: non-transformed control mycobacteria; format: cell-based, M. smegmatis, M. bovis BCG, M. tuberculosis
[2] = test system: mycobacteria carrying the plasmid pMR001; format: cell-based, M. smegmatis, M. bovis BCG, M. tuberculosis
[3] = test system: pVN2-carrying mycobacteria; format: cell-based, M. smegmatis, M. bovis BCG, M. tuberculosis
[4] = test system: Mycobacterium smegmatis carrying plasmid pVN3; assay: Resistance to arsenic conferred by plasmid pVN3; format: cell-based; details: pVN3 in Mycobacterium smegmatis

[Cl][Hg][Cl] [HgCl2]
MIC Liquid medium [1]: 1.25 mg/L | MIC Solid medium [1]: 0.15 mg/L | concentration at which considerable susceptibility is shown [1]: 0.15 µg/mL | concentration of complete inhibition of bacterial growth (MIC) [1]: 1 µg/mL | MIC Liquid medium [2]: 40 mg/L | MIC Solid medium [2]: 160 mg/L | concentration at which still capable of growing [2]: 20 µg/mL | concentration of complete inhibition of bacterial growth [2]: 160 µg/mL | MIC Liquid medium [3]: 40 mg/L | MIC Solid medium [3]: 160 mg/L | concentration up to which growth occurs [3]: ≤ 40 µg/mL

arsenic nitrate [AsNO3]
resistance level [4]: ~10 mg/L
